Measurements as given in patent publication US20220370382A1, “METHODS AND COMPOSITIONS FOR CORRECTION OF AUTONOMIC DYSFUNCTIONS” (priority 2021, published 2022).

How the values were obtained:
[1] = cited from earlier work
[2] = tested on: effector organs of the vagus nerve; assay: Stimulation of the effector organs of the vagus nerve in patients tested; assay type: in vivo, human
Text: Certain ingredients of the compound (a choline compound, an acetylcholinesterase inhibitor and Acetyl-L-Carnitine) have been used to reduce inflammation, to assist those suffering from metabolic insufficiencies, and for healthy memory and mental function, and numerous studies have been published involving cognition, dementia, age-related memory loss and neurodegeneration with these ingredients. (U.S. Pat. No. 6,537,969 B1, Patent No. US 2008/0213401). […] It is not intuitive or obvious that any two of these ingredients can also be effective and that any two of these ingredients can restore parasympathetic nerve function even when the postganglionic nerve is not viable for any reason, by directly stimulating the effector organs themselves.
Driscoll found the use of nicotine can diagnose pre-ganglionic vagus nerve dysfunction. […] Nicotine (transdermal, suppository, or) can be used to discern receptor damage from either direct nerve damage or neurotransmitter dysfunction. These forms of nicotine can be used to verify that the organ is capable of responding, to test the cholinergic receptors or postganglionic nerve, or can be used for short periods of time to assist with said organ function (ileocecal valve, gastroparesis/constipation, gallbladder, pancreas, gastric acid secretion). No part of the vagus nerve is required for the use of nicotine to be effective because the invention can effectively stimulate the receptor on the organ itself. […]

[3] = person, Ehlers-Danlos syndrome, given for a hospital-induced infection
[4] = tested on: patients with autonomic dysfunction and/or connective tissue disorders; assay: Patient case studies: other signs (tachycardia, dry eyes, light sensitivity, Roth spot, gallbladder function, pseudotumor cerebri symptoms); assay type: in vivo, human; conditions: person, POTS, Idiopathic Intracranial Hypertension; acetazolamide 250 mg three times per day
Experimental: They also suffered with poor digestion, dry eyes, and fatigue.
Most every day (usually in the evenings) they experienced pseudo seizures lasting from 30 minutes to three hours. These began with their eyes rolling up and their eyelids fluttering, then they progressed to full body twitching and spasming. These pseudo seizures continued for over three years, but physicians were unable to locate the source of their symptoms. A Roth spot in their ocular fundus in addition to numerous symptoms of nutrient malabsorption were noted. They suffered with light sensitivity secondary to large pupils (5.5 mm), weight loss, extreme fatigue, constipation, tachycardia, and dry eyes.
Gallbladder removal surgery was recommended.

[5] = tested on: patients with autonomic dysfunction and/or connective tissue disorders; conditions: person, POTS, Idiopathic Intracranial Hypertension; acetazolamide 250 mg three times per day
Text: Acetazolamide was prescribed for high intracranial pressure.

Which results are given for CN1CCCC1c1cccnc1 (centres unmarked) [Nicotine]?
lethal dosage ([1]; human, in vivo): 60 mg; side effects on chronic use ([1]; treatment of parasympathetic and vagus nerve dysfunction on a chronic basis): dermatographia, hives, itching, and welting

With Cc1ncc(C[n+]2csc(CCO)c2C)c(N)n1 [Thiamin] as the compound, how does the “autonomic dysfunction or disorders of the effector organs of the parasympathetic nervous system” value ([2]; supplementation alone) read?
Its value is “will not eliminate”.

For CN[C@H](CC(C)C)C(=O)N[C@H]1C(=O)N[C@@H](CC(N)=O)C(=O)N[C@H]2C(=O)N[C@H]3C(=O)N[C@H](C(=O)N[C@H](C(=O)O)c4cc(O)cc(O)c4-c4cc3ccc4O)[C@H](O)c3ccc(c(Cl)c3)Oc3cc2cc(c3O[C@@H]2O[C@H](CO)[C@@H](O)[C@H](O)[C@H]2O[C@H]2C[C@](C)(N)[C@H](O)[C@H](C)O2)Oc2ccc(cc2Cl)[C@H]1O [Vancomycin], which “adverse reaction to antibiotic” value [3] is on record?
The value was “developed hives and dramatic flushing”.

Which pseudotumor cerebri symptoms [4] does the source give for CC(=O)Nc1nnc(S(N)(=O)=O)s1 [acetazolamide] here?
The pseudotumor cerebri symptoms was “relieved”.

And the visual snow [5]?
Its visual snow is “did not improve”.

With C[N+](C)(C)CC(O)CC(=O)[O-] (centres unmarked) [carnitine] as the compound, how does the “organ function when added to the compound” value ([2]; case studies, patients with organ malfunction secondary to poor vagus nerve function) read?
The value was “better organ function”.

With CN1CCCC1c1cccnc1 (centres unmarked) [oral nicotine, nicotine] as the compound, how does the “stimulation of the effector organs of the vagus nerve / restoration of vagus nerve function” value ([2]; patients tested, ingredient used alone, or nicotine by the stated route (transdermal 1-21 mg)) read?
The value was “not effective”.
